In series [1] the test system is MRSA M173525. The format is cell-based, methicillin-resistant Staphylococcus aureus. To be noted: clinical isolate; MHB, 37 °C overnight; mode of three independent experiments. How it is done: (§1) The activity of peptides was determined against the Gram-positive Staphylococcus aureus (ATCC 25923), and the Gram-negative Escherichia coli (ATCC 25922) and Pseudomonas aeruginosa (ATCC 9027) bacteria. Selected peptides were also tested against two clinical isolates of methicillin-resistant Staphylococcus aureus (MRSA), M173525 and M180920, kindly provided by Dr P. B. Ward (Microbiology Department, Austin and Repatriation Medical Centre, Heidelberg West, Victoria, Australia). The Minimum inhibitory concentration (MIC) of peptides was determined by the microtitre broth dilution method, as described in Phillips et al.. Briefly, bacteria were grown in Mueller-Hinton Broth (MHB) at 37 °C overnight with shaking (200 rpm). The cultures were adjusted to 0.5 McFarland turbidity standard (approximately 1 × 10^8 colony forming units (CFU)/mL), then diluted 1:100 in MHB (1 × 10^6 CFU/mL). A total of 75 μL of these suspensions were mixed with 25 μL of peptide solutions (final concentrations 250 to 0.5 μg/mL) and the microtitre plates incubated overnight at 37 °C. Positive growth controls (inoculum and MHB, with no peptide) and sterility controls (0.01% glacial acetic) were also included. Post-incubations, the absorbance of cultures at 595 nm was measured using a microplate reader (POLARstar Omega, Germany). […] To evaluate salt sensitivity of peptides up to physiological levels (150 mM NaCl), overnight cultures of S. aureus and E. coli adjusted to 0.5 McFarland turbidity standard were diluted 1:100 in MHB containing 0, 50, 100 or 150 mM NaCl, and the MICs of peptides determined as above. All tests were conducted in triplicate. The results are shown as the mode of values obtained.

Series [2] has as its system MRSA M180920. The series is classed as cell-based, methicillin-resistant Staphylococcus aureus. To be noted: clinical isolate; MHB, 37 °C overnight; mode of three independent experiments. The protocol: as §1
The subject of series [3] is P. aeruginosa ATCC9027. The format is cell-based, Pseudomonas aeruginosa. Conditions: MHB, 37 °C overnight, A595; mode of three independent experiments. The protocol: as §1
Series [4] has as its system E. coli ATCC25922. The format is cell-based, Escherichia coli. To be noted: MHB; for MIC E. coli, No NaCl: 0 mM NaCl; for MIC E. coli, No NaCl / MIC E. coli, With 50mM NaCl / MIC E. coli, With 100mM NaCl / MIC E. coli, With 150mM NaCl: triplicate, mode; for MIC E. coli ATCC25922: 37 °C overnight, A595, mode of three independent experiments. The protocol: as §1
Series [5] concerns NIH-3T3 cells. Description: Cytotoxicity, MTT assay. The series is classed as cell-based, mouse. To be noted: 24 h; for IC50 NIH-3T3: peptide up to 250 µg/mL, concentration causing 50% cell growth inhibition, mean of triplicate assays. How it is done:
Cytotoxicity to human cervical carcinoma HeLa cells and mouse fibroblastic NIH-3T3 cells was determined using the MTT assay as per Scudiero et al. with minor modifications. The cells were maintained in Dulbecco’s Modified Eagle Medium (DMEM) with 10% foetal bovine serum (FBS) and 1% penicillin G in a humidified incubator (Heraeus Hera Cell incubator) at 37 °C with 5% CO2. They were seeded in 96-well microtiter plates at 1 × 10^4 cells/well and allowed to adhere for 24 h in the incubator. The medium was removed, and adherent cells were washed with PBS. Fresh media containing serially diluted peptides in PBS (final concentrations 4 to 250 µg/mL) were added and the cells incubated for 24 h. Cells without peptides were used as negative controls. Following incubations, the medium was removed, and adherent cells were washed with PBS. 150 µL of MTT (diluted to 0.33 mg/mL in DMEM) and the plates incubated for 3 h. The precipitated formazan was dissolved in 100 µL of DMSO and its absorbance measured at 570 nm. Cell viability was determined as: (OD570 nm peptide treated cells/(OD570 nm untreated cells) × 100. Positive cytotoxicity was defined as peptide concentration that causes 50% growth inhibition in a cell line (IC50). All tests were carried out in triplicate.
A general note: Tetrazolium assays rely on reduction of a dye to a coloured formazan, in cell work by metabolically active cells.

Series [6] relates to C. albicans FRR 5580. The series is classed as cell-based, Candida albicans. Conditions: PDB, overnight; mode of three independent experiments. The protocol: The assay was carried out as per Alfred et al.. Candida albicans (FRR 5580) was grown in potato dextrose broth (PDB; Difco-BD, Bergen County, NJ, USA) overnight at 30 °C with shaking (200 rpm) until exponential phase, then adjusted to 0.5 McFarland turbidity standard (approximately 1 × 10^6 cells/mL) and diluted 1:200 with PDB to 0.5 − 2 × 10^3 cells/mL. Peptides in 25 μL volumes were mixed with 75 μL of the yeast suspensions. The controls were included as above. The plates were incubated overnight and absorbance was recorded. All the tests were conducted in triplicate.

In series [7] the test system is porcine trypsin and proteinase K. Kind of series: Proteases stability assay. Conditions: 1000 µg peptide with 50 µg protease (20:1 w/w), porcine trypsin or proteinase K, PBS pH 7.4, 37 °C, 3 h; read-out activity of supernatant on E. coli and S. aureus; triplicate. The series is classed as in vitro ADME, porcine; Tritirachium album. The protocol: The effect of two well-studied proteases, porcine trypsin and proteinase K from Tritirachium album, on the activity of peptides was investigated as per Carmona et al.. Briefly, 1000 µg of a peptide was incubated with 50 µg of a protease (20:1 w/w) at 37 °C for 3 h in phosphate buffered saline PBS (pH 7.4). The enzyme activity was then terminated by heating (70 °C, 5 min) and the samples centrifuged at 12,000× g. The activity of the supernatant on E. coli and S. aureus was tested as above, in triplicate.

Series [8] relates to S. aureus ATCC25923. The series is classed as cell-based, Staphylococcus aureus. To be noted: MHB; for MIC S. aureus, No NaCl: 0 mM NaCl; for MIC S. aureus, No NaCl / MIC S. aureus, With 50mM NaCl / MIC S. aureus, With 100mM NaCl / MIC S. aureus, With 150mM NaCl: triplicate, mode; for MIC S. aureus ATCC25923: 37 °C overnight, A595, mode of three independent experiments. How it is done: as §1

Converted amounts (≈) assume the structure as drawn. Where no end group is shown, it is not given here.

Turning to `CC(C)[C@H](NC(=O)[C@@H]1CCCN1C(=O)[C@@H](N)Cc1ccccc1)C(=O)N[C@H](C(=O)N[C@@H](Cc1c[nH]c2ccccc12)C(=O)N[C@@H](CCCNC(=N)N)C(=O)N[C@@H](Cc1c[nH]c2ccccc12)C(=O)N[C@@H](Cc1c[nH]c2ccccc12)C(=O)N[C@@H](CCCCN)C(=O)N[C@@H](Cc1c[nH]c2ccccc12)C(=O)N[C@@H](Cc1c[nH]c2ccccc12)C(=O)N[C@@H](CCCCN)C(=O)NCC(N)=O)[C@@H](C)O` [PuroA], in series [1], the “MIC MRSA M173525” value was 16 µg/mL (≈ 8.59 µM). The “MIC MRSA M180920” value in series [2] stood at 16 µg/mL (≈ 8.59 µM). Moreover, in series [3], the “MIC P. aeruginosa ATCC9027” value is 64 µg/mL (≈ 34.4 µM). In series [4], the “MIC E. coli, No NaCl” value stood at 16 µg/mL (≈ 8.59 µM); the “MIC E. coli, With 50mM NaCl” value was determined as 16 µg/mL (≈ 8.59 µM); the “MIC E. coli, With 100mM NaCl” value amounted to 32 µg/mL (≈ 17.2 µM); the “MIC E. coli, With 150mM NaCl” value came to 64 µg/mL (≈ 34.4 µM). The “MIC E. coli ATCC25922” value in series [4] amounted to 16 µg/mL (≈ 8.59 µM). Also, the “IC50 NIH-3T3” value in series [5] was 250 µg/mL (≈ 134 µM). For the same molecule, the “MIC C. albicans FRR 5580” value in series [6] was determined as 125 µg/mL (≈ 67.1 µM). The “Protease Stability” value in series [7] is “Unstable”. For the same molecule, in series [8], the “MIC S. aureus, No NaCl” value is 16 µg/mL (≈ 8.59 µM); the “MIC S. aureus, With 50mM NaCl” value worked out at 16 µg/mL (≈ 8.59 µM); the “MIC S. aureus, With 100mM NaCl” value came out at 32 µg/mL (≈ 17.2 µM); the “MIC S. aureus, With 150mM NaCl” value was 64 µg/mL (≈ 34.4 µM). The “MIC S. aureus ATCC25923” value in series [8] was 16 µg/mL (≈ 8.59 µM).
As for RKRWWRWWKWWKR-NH2 [Peptide P1], the “MIC MRSA M173525” value in series [1] was found to be 16 µg/mL. In addition, the “MIC MRSA M180920” value in series [2] came to 8 µg/mL. Besides, in series [3], the “MIC P. aeruginosa ATCC9027” value came out at 16 µg/mL. In addition, in series [4], the “MIC E. coli, No NaCl” value was found to be 16 µg/mL; the “MIC E. coli, With 50mM NaCl” value came to 16 µg/mL; the “MIC E. coli, With 100mM NaCl” value stood at 16 µg/mL; the “MIC E. coli, With 150mM NaCl” value turned out to be 16 µg/mL. The “IC50 NIH-3T3” value in series [5] amounted to 250 µg/mL. In addition, in series [6], the “MIC C. albicans FRR 5580” value is 64 µg/mL. In series [7], the “Protease Stability” value is “Unstable”. For the same molecule, in series [8], the “MIC S. aureus, No NaCl” value came to 16 µg/mL; the “MIC S. aureus, With 50mM NaCl” value was 16 µg/mL; the “MIC S. aureus, With 100mM NaCl” value came out at 16 µg/mL; the “MIC S. aureus, With 150mM NaCl” value amounted to 16 µg/mL.
On to WRWWKWW-NH2 [Peptide W7], for which the “MIC MRSA M173525” value in series [1] was 8 µg/mL. Besides, in series [2], the “MIC MRSA M180920” value stood at 8 µg/mL. Further, in series [3], the “MIC P. aeruginosa ATCC9027” value was 32 µg/mL. Further, in series [4], the “MIC E. coli, No NaCl” value came out at 4 µg/mL; the “MIC E. coli, With 50mM NaCl” value is 4 µg/mL; the “MIC E. coli, With 100mM NaCl” value is 4 µg/mL; the “MIC E. coli, With 150mM NaCl” value worked out at 4 µg/mL. Besides, the “MIC E. coli ATCC25922” value in series [4] is 4 µg/mL. For the same molecule, the “IC50 NIH-3T3” value in series [5] worked out at 250 µg/mL. In addition, the “MIC C. albicans FRR 5580” value in series [6] was 64 µg/mL. In series [7], the “Protease Stability” value was “Unstable”. Moreover, in series [8], the “MIC S. aureus, No NaCl” value was 8 µg/mL; the “MIC S. aureus, With 50mM NaCl” value was determined as 8 µg/mL; the “MIC S. aureus, With 100mM NaCl” value came to 8 µg/mL; the “MIC S. aureus, With 150mM NaCl” value turned out to be 8 µg/mL. The “MIC S. aureus ATCC25923” value in series [8] is 8 µg/mL.
For WWRWWKWW-NH2 [WW], the “MIC MRSA M173525” value in series [1] stood at 4 µg/mL. In addition, the “MIC MRSA M180920” value in series [2] was found to be 4 µg/mL. Moreover, the “MIC P. aeruginosa ATCC9027” value in series [3] is 32 µg/mL. Besides, in series [4], the “MIC E. coli, No NaCl” value is 8 µg/mL; the “MIC E. coli, With 50mM NaCl” value was found to be 8 µg/mL; the “MIC E. coli, With 100mM NaCl” value amounted to 8 µg/mL; the “MIC E. coli, With 150mM NaCl” value worked out at 8 µg/mL. For the same molecule, in series [4], the “MIC E. coli ATCC25922” value came out at 8 µg/mL. The “IC50 NIH-3T3” value in series [5] was greater than 250 µg/mL. In series [5] (up to 250 µg/mL), the “Cytotoxicity to NIH-3T3 mouse fibroblasts (in words)” value is given as “no cytotoxicity”. Also, in series [6], the “MIC C. albicans FRR 5580” value worked out at 64 µg/mL. The “Protease Stability” value in series [7] was “Unstable”. Further, in series [8], the “MIC S. aureus, No NaCl” value was determined as 8 µg/mL; the “MIC S. aureus, With 50mM NaCl” value was found to be 8 µg/mL; the “MIC S. aureus, With 100mM NaCl” value was determined as 8 µg/mL; the “MIC S. aureus, With 150mM NaCl” value came out at 8 µg/mL. In series [8], the “MIC S. aureus ATCC25923” value was 8 µg/mL.

Values taken from article PMC7696940, “Effects of Rationally Designed Physico-Chemical Variants of the Peptide PuroA on Biocidal Activity towards Bacterial and Mammalian Cells” (International Journal of Molecular Sciences, 2020).
